IC50 data for three compounds are collected here from patent US7449488B2, “Pyrazolopyrimidines as protein kinase inhibitors” (priority 2002, dated 2008).

For the assay, the target named is T1, CDK2 (cyclin A or E-dependent; cyclin-CDK2 complexes) (Homo sapiens, UniProt P24941).
T1 construct: made in house; host or cells: SF9 insect cells (baculovirus)
As to the kind of experiment: CDK2 in vitro kinase assay (cyclin A or E-dependent), SPA. It is filed as biochemical.
As usually defined, the IC50 is the concentration that gives 50% inhibition. A lower IC50 goes with inhibition by little substance. Compound `Cc1nc2c(Br)cnn2cc1CCO` registered a 50% inhibitory concentration (IC50) of 300 nM.

`OCC[C@@H]1CCCCN1c1ccn2ncc(Br)c2n1` had an IC50 of 30 nM.

On to `CCc1cn2ncc(Br)c2nc1C`, for which the IC50 was 100 nM.
